Data on 104 molecules can be found in PubChem BioAssay AID1996.

≈ marks a conversion by molar mass, not a printed value.

The term solubility (kinetic) denotes the concentration staying in solution when a stock, usually in DMSO, is diluted into the medium.

The conditions of this data set: buffer; pH 7.4; 200.0 µM.
Take `C=CCN1C(=O)C2(OCCCO2)c2cc(Cl)ccc21`: the kinetic solubility came to 33.7 µg/mL (≈ 120 µM).
As for `CCOc1ccc(NC(=O)CN(C)C(=O)C2COc3ccccc3O2)cc1OCC` (centres undefined), the kinetic solubility is greater than 62.2 µg/mL.
Regarding `CCOC(=O)N1CCN(CC(=O)Nc2sccc2C#N)CC1`, the kinetic solubility is greater than 48.4 µg/mL.
As for `CC1CC(=O)Nc2ccccc2N1C(=O)Nc1ccccc1` (centres undefined), the kinetic solubility turned out to be 30.2 µg/mL (≈ 102 µM).
On to `O=C(NCCCNC(=O)c1ccccc1Cl)c1cnccn1`, for which the solubility (kinetic) is 43.5 µg/mL (≈ 136 µM).
In the case of `CC(C)(C)c1ccc(S(=O)(=O)NCc2ccccn2)cc1`, the solubility (kinetic) is 44.1 µg/mL (≈ 145 µM). This solubility kinetic and that of the molecule before are within 1.5-fold of each other.
Then `N#Cc1ccc(NC(=O)CCNC(=O)c2ccco2)cc1Cl`, with 5 µg/mL (≈ 15.7 µM).
With `O=c1[nH]c([O-])c(Cc2ccc3c(c2)OCO3)c(=O)[nH]1.[NH4+]` the figure was 29.7 µg/mL.
As to `Cc1cc(C)nc(NC(=O)c2ccc(C)c(C)c2)n1`, the kinetic solubility stood at 35.2 µg/mL (≈ 138 µM).
In turn, `O=C(Nc1cc2c3c(c1)CC(=O)N3CCC2)c1ccc(Br)cc1` registered a kinetic solubility of 10.3 µg/mL (≈ 27.7 µM).
`COc1cccc(N2CN(CCc3ccccc3)CNC2=S)c1` returned a solubility (kinetic) of 9.8 µg/mL (≈ 29.9 µM).
For `CN(C)C(=O)COc1ccc(C(=O)/C=C/c2cccnc2)cc1`, the kinetic solubility was found to be 41.6 µg/mL (≈ 134 µM).
The molecule `Cc1cccc(C)c1NC(=S)N(Cc1cccs1)C1CCCC1` displayed a solubility (kinetic) of 0.6 µg/mL (≈ 1.74 µM).
Molecule `O=C(NC1CCN(Cc2ccc(Cl)c(Cl)c2)CC1)c1ccccc1` had a kinetic solubility of 1.9 µg/mL (≈ 5.23 µM). This solubility kinetic lies about 3.2-fold higher than the previous one.
For `COC(=O)c1ccccc1SCc1csc(C)n1`, the solubility (kinetic) came out at 38.7 µg/mL (≈ 139 µM).
Then `COC(=O)C1C(=O)c2c(C)noc2CC1(C)C` (centres undefined), with greater than 35.6 µg/mL; and `Cc1ccc(CONC(=O)c2ccccc2Cl)cc1`, with greater than 41.4 µg/mL.
`COC(=O)c1cc(S(=O)(=O)N2CCCC2=O)c(Cl)cc1Cl` displayed a solubility (kinetic) greater than 52.8 µg/mL.
`O=C(c1cccc([N+](=O)[O-])c1)c1ccc2c(c1)OCCOCCOCCO2` had a kinetic solubility greater than 56 µg/mL.
Then `Cc1ccc(NC(=O)Cc2ccsc2)cc1Cl`, with 4.6 µg/mL (≈ 17.3 µM); and `Cc1c(Cl)cccc1NC(=O)C1CCCN(S(C)(=O)=O)C1` (centres undefined), with 7.3 µg/mL (≈ 22.1 µM).
In turn, `COc1cccc(-c2noc(CCC(=O)NC3CCCC3)n2)c1` registered a kinetic solubility greater than 47.3 µg/mL.
With `Cc1ccn2c(NC3CCCC3)c(-c3cccs3)nc2c1.Cl` the figure was 14.7 µg/mL; with `O=C(NCCCCNC(=O)c1ccccc1F)c1ccccc1F`, greater than 49.9 µg/mL.
Then `O=C1CN=C(c2ccc(F)cc2)c2oc3ccccc3c2N1`, with 0.4 µg/mL (≈ 1.36 µM); and `Cc1cc(C)cc(NC(=O)C2CCN(S(C)(=O)=O)CC2)c1`, with 38.8 µg/mL (≈ 125 µM).
As to `COc1ccc(NC(=O)c2cccnc2)cc1OCC(C)C`, the solubility (kinetic) was 27.2 µg/mL (≈ 90.6 µM).
`Cc1cccc(N2CCN(Cc3nc(CC4CC4)no3)CC2)n1` came in with a solubility (kinetic) of 41.1 µg/mL (≈ 131 µM). This solubility kinetic is about 1.5-fold higher than that of the molecule before.
`Cc1cc(C)cc(C(=O)OCC(=O)NC(=O)NC2CCCC2)c1` came in with a solubility (kinetic) of 4.1 µg/mL (≈ 12.9 µM).
Molecule `Cc1cc(NC(=O)c2ccc(F)cc2)ccc1NC(=O)c1ccco1` yielded a solubility (kinetic) of 3.4 µg/mL (≈ 10 µM).
Turning to `O=C(O)CCN=Cc1c(O)c2ccccc2oc1=O`, the kinetic solubility was greater than 39.2 µg/mL.
`COc1cc([N+](=O)[O-])cc2sc(NC(=O)C(C)(C)C)nc12` had a solubility (kinetic) of less than 0.2 µg/mL.
The molecule `CS(=O)(=O)N1CCC(C(=O)N2CCN(c3ccccc3F)CC2)CC1` showed a solubility (kinetic) of 53.1 µg/mL (≈ 144 µM).
Turning to `O=C(CN1CCCCC1)Nc1ccccc1Oc1ccccc1`, the solubility (kinetic) is 5.6 µg/mL (≈ 18 µM).
Then `COc1ccccc1C(=O)NCC1(c2ccccc2)CCCC1`, with 8.1 µg/mL (≈ 26.2 µM); and `CCOc1ccc(S(=O)(=O)N2CCN(C(=O)c3ccc(C)c(S(=O)(=O)N4CCOCC4)c3)CC2)cc1`, with 19.3 µg/mL (≈ 35.9 µM).
With `Cc1ccc(NC(=O)c2oc3ccccc3c2C)nc1` the figure was 6.4 µg/mL (≈ 24 µM); with `N#Cc1ccc(OCc2ccc(C(=O)O)o2)cc1`, greater than 36.5 µg/mL; with `O=C(Cc1ccccc1[N+](=O)[O-])NC1CC2CCC1C2` (centres undefined), greater than 41.1 µg/mL.
Molecule `CN(Cc1cccs1)C(=O)COC(=O)CNC(N)=O` showed a kinetic solubility greater than 42.8 µg/mL.
Turning to `COc1cccc(C2(O)CCN(CC(=O)NCC3CC3)CC2)c1`, the solubility (kinetic) is greater than 47.8 µg/mL.
In turn, `COc1ccc(C2CN(C)CC2C(=O)c2ccc(C)cc2)cc1Cl` (centres undefined) registered a kinetic solubility of 40.1 µg/mL (≈ 117 µM).
Turning to `Cc1oc(C(C)(C)C)cc1C(N)=O`, the solubility (kinetic) was greater than 27.2 µg/mL.
For the molecule `O=C(COc1ccccc1N1C(=O)C2C3C=CC(C3)C2C1=O)c1ccccc1` (centres undefined), the solubility (kinetic) was greater than 56 µg/mL.
Molecule `CCOc1ccc(C(=O)NCc2ccc3c(c2)OCO3)cc1OCC` yielded a kinetic solubility of 1.2 µg/mL (≈ 3.49 µM).
With `O=C(/C=C/c1ccc(Br)cc1)NCCCn1ccnc1` the figure was 44.2 µg/mL (≈ 132 µM); with `CCCC[n+]1c(C)sc2cc(OC)ccc21.[I-]`, 31.9 µg/mL; with `O=C1C=C(N2CCCCCC2)C2(CCCCC2)O1`, 37.1 µg/mL (≈ 149 µM).
In the case of `Cc1cc(C)cc(NC(=S)N(C)C)c1`, the kinetic solubility was 30.7 µg/mL (≈ 147 µM).
As to `CCOc1cc(/C=C/c2nc3ccccc3c(=O)[nH]2)ccc1O`, the kinetic solubility turned out to be 32.4 µg/mL (≈ 105 µM).
Molecule `COC(=O)Nc1sc2c(c1C(N)=O)CCC(C)C2` (centres undefined) gave a solubility (kinetic) of 5 µg/mL (≈ 18.6 µM).
Then `Cc1cc(C)cc(NC(=O)N2CCc3ccccc3C2)c1`, with 1.3 µg/mL (≈ 4.64 µM); and `COCc1ccc(C(=O)Nc2cccc(S(=O)(=O)N(C)c3ccccc3)c2)cc1`, with 15.7 µg/mL (≈ 38.2 µM); and `Cc1cccc(NC2=CC(=O)CC(C)(C)C2)c1C`, with greater than 36.5 µg/mL.
As to `Cc1cn(CCC(=O)Nc2ccccc2N2CCOCC2)c2ccccc12`, the kinetic solubility turned out to be 27.5 µg/mL (≈ 75.7 µM).
`COc1ccc(NC(=O)CN(C)C(=O)c2ccccc2OC)cc1` displayed a kinetic solubility greater than 49.3 µg/mL.
For the molecule `O=c1nc(Nc2ccc([N+](=O)[O-])cc2)[nH]c(=O)[nH]1`, the kinetic solubility amounted to 26.2 µg/mL (≈ 105 µM).
For `CCN(CC)CC#CC(OC)(c1ccccc1)c1ccccc1.Cl`, the solubility (kinetic) worked out at 29.5 µg/mL.
Then `CC(=O)c1ccc(NC(=O)COC(=O)c2c[nH]c3ccccc23)cc1`, with 1.8 µg/mL (≈ 5.35 µM); and `CC(=O)Nc1nc2ccc(S(=O)(=O)N3CCCC3)cc2s1`, with 3.1 µg/mL (≈ 9.53 µM).
For the molecule `CC(=O)N=c1scc(-c2ccccc2)n1-c1cccc(O)c1`, the solubility (kinetic) was 2.6 µg/mL (≈ 8.38 µM).
`CC(=O)NC(Cc1c[nH]c2ccccc12)C(=O)NCCc1ccccn1` (centres undefined) gave a solubility (kinetic) greater than 52.6 µg/mL.
In turn, `CN(C)c1ccc(N2C(=O)CC(c3ccccc3)CC2=O)cc1` came in with a kinetic solubility of 12.3 µg/mL (≈ 39.9 µM).
Consider `Cc1cc(S(=O)(=O)N2CCCCC2)c(C)s1`, for which the solubility (kinetic) was greater than 38.9 µg/mL.
`O=P(C(Cl)Cl)(N1CCOCC1)N1CCOCC1` showed a solubility (kinetic) greater than 45.5 µg/mL.
Then `CC(C)c1ccc(CSc2ccc(S(=O)(=O)N3CCOCC3)cn2)cc1`, with 1.9 µg/mL (≈ 4.84 µM); and `COC(=O)c1cccc(NC(=O)c2cc3ccccc3o2)c1`, with 13.5 µg/mL (≈ 45.7 µM).
With `Nc1cccc(C(=O)NCCNC(=O)c2cccc(N)c2)c1`, the solubility (kinetic) was greater than 44.8 µg/mL.
With `COc1cccc(-c2nc(-c3ccc(Br)o3)no2)c1` the figure was 0.5 µg/mL (≈ 1.56 µM); with `CC(=O)NS(=O)(=O)c1ccc(NC(=O)[C@@H]2CCCN2S(=O)(=O)c2ccc(Cl)cc2)cc1`, greater than 72.9 µg/mL.
On to `O=c1[nH]c(=S)n(-c2ccccc2F)c(O)c1C=NCCN1CCNCC1`, for which the kinetic solubility is 55.3 µg/mL (≈ 147 µM).
Then `Cn1cc(S(=O)(=O)N2CCCC2)cc1C(=O)O`, with greater than 38.7 µg/mL.
Take `CCN1CCN(C(=O)C2CC(=O)N(c3ccc(Cl)cc3)C2)CC1` (centres undefined): the kinetic solubility was greater than 50.4 µg/mL.
Molecule `CCOc1ccc(CN(C)C(=O)c2ccc3ccccc3n2)cc1` registered a solubility (kinetic) of 34.7 µg/mL (≈ 108 µM).
For the molecule `COC(=O)c1cc(OC)c(OC)cc1N1C(=O)CCCC1=O`, the kinetic solubility is greater than 46.1 µg/mL.
With `COc1ccc(OC)c(S(=O)(=O)NC2CCCCNC2=O)c1` (centres undefined) the figure was greater than 49.3 µg/mL; with `S=C(NCc1ccccc1)NC1CCSc2ccccc21` (centres undefined), 1.2 µg/mL (≈ 3.82 µM).
The molecule `Cc1ccc(C)c(NC(=O)C(C)N2C(=O)c3ccccc3C2=O)c1` (centres undefined) returned a solubility (kinetic) of 21 µg/mL (≈ 65.1 µM).
Then `N#CC1CCN(c2ncccc2[N+](=O)[O-])CC1`, with greater than 34.8 µg/mL.
The molecule `COc1cc(/C=C/C(=O)O)cc(S(=O)(=O)N2CCCc3ccccc32)c1OC` registered a kinetic solubility of 45.3 µg/mL (≈ 112 µM).
`CC(CC(=O)NCCc1ccc(F)cc1)c1ccccc1` (centres undefined) registered a kinetic solubility of 39.3 µg/mL (≈ 138 µM). The solubility kinetic values of the last two molecules are within 1.5-fold of each other.
As for `CC1CC(C)CN(c2ncnc3c2cnn3C)C1` (centres undefined), the kinetic solubility is greater than 36.8 µg/mL.
Consider `CC(NC(=O)c1cnccn1)c1ccc(S(N)(=O)=O)cc1` (centres undefined), for which the kinetic solubility was greater than 46 µg/mL.
`COCCNC(=O)C(=O)Nc1cc2c3c(c1)C(C)C(=O)N3CCC2` (centres undefined) had a solubility (kinetic) of 48.7 µg/mL (≈ 147 µM).
In the case of `CC(C[N+](C)(C)C)OC(=O)C1(c2ccccc2)CCCC1` (centres undefined), the kinetic solubility is 34.7 µg/mL.
For `CCCCNC(=O)c1cc2cc(CC)ccc2[nH]1`, the solubility (kinetic) is 1.9 µg/mL (≈ 7.78 µM).
`CC(C)C(=O)Nc1nnc(SCC(=O)NCC2CCCO2)s1` (centres undefined): the solubility (kinetic) is greater than 51.7 µg/mL.
`Cc1cccc(-c2nc(C#N)c(NCC3CCCO3)o2)c1` (centres undefined) had a kinetic solubility of 2.3 µg/mL (≈ 8.12 µM).
`CCN(CC)CCNC(=O)/C(=N\O)c1ccccn1` returned a solubility (kinetic) greater than 39.6 µg/mL.
Regarding `Cc1ccc(/C=C(\C#N)C(=O)NCc2ccco2)o1`, the kinetic solubility was determined as 9 µg/mL (≈ 35.1 µM).
Turning to `COc1cccc2[nH]c(=O)c(-c3ccccc3)cc12`, the kinetic solubility is 1.4 µg/mL (≈ 5.57 µM).
Consider `CCCN1CCC(NC(=O)C2CC=CCC2C(=O)O)CC1` (centres undefined), for which the solubility (kinetic) was greater than 44.2 µg/mL.
`Cc1nonc1OC(C)CNCCNc1ccc([N+](=O)[O-])cc1.Cl` (centres undefined) had a solubility (kinetic) greater than 53.7 µg/mL.
Consider `c1ccc(CCOn2ccnc2)cc1`, for which the solubility (kinetic) is greater than 28.2 µg/mL.
With `COc1cccc(OC)c1OCC(=O)Nc1ccc(S(=O)(=O)N2CCCC2)cc1` the figure was 2.6 µg/mL (≈ 6.18 µM); with `O=Cc1cn(CCOc2ccccc2)c2ccccc12`, 12.9 µg/mL (≈ 48.6 µM); with `O=C(Cn1c(=O)oc2ccccc21)Nc1ccccc1Cl`, 6.8 µg/mL (≈ 22.5 µM).
The molecule `O=C(Nc1ncccn1)c1cccc(Cl)c1` yielded a solubility (kinetic) of 23.6 µg/mL (≈ 101 µM).
Regarding `Cc1ccc(OCCNC(=O)c2ccccc2O)cc1`, the kinetic solubility is 4.5 µg/mL (≈ 16.6 µM).
With `O=C(CCCOc1ccccc1)Nc1cccc(S(=O)(=O)N2CCOCC2)c1` the figure was 57.6 µg/mL (≈ 142 µM); with `Cc1ccccc1NC(=O)CSc1nc(O)cc(=O)n1C`, 35.6 µg/mL (≈ 117 µM); with `Cc1ccc(SC(C)C(=O)O/N=C(\N)c2ccncc2)cc1` (centres undefined), greater than 47.3 µg/mL.
In turn, `Nc1ccc(C(=O)C(=O)c2ccccc2)cc1` displayed a solubility (kinetic) greater than 33.8 µg/mL.
As for `Cn1c(N)c(C(=O)COC(=O)Cc2ccc(Br)cc2)c(=O)n(C)c1=O`, the solubility (kinetic) turned out to be 0.7 µg/mL (≈ 1.71 µM).
